The values below come from patent US10882825B2, “Non-solvated crystal, preparation method and application thereof” (SHENZHEN CHIPSCREEN BIOSCIENCES CO., LTD., priority 2016, dated 2021).

This data set is described as follows: Stability test of the crystal form (high temperature, high humidity, strong light irradiation; X-ray powder diffraction and HPLC content). It counts as physicochemical. The conditions noted are these: high temperature (60° C.), high humidity (90%), strong light irradiation (4500 Lx); day 0 vs day 10. The procedure: Test conditions of X-ray powder diffraction: instrument: D/MAX-1200 (Rigaku, Japan); radiation source: Cu-Kα (40 kV, 40 mA).
Test conditions of stability: high temperature (60° C.), high humidity (90%) and strong light irradiation (4500 Lx) tests are performed according to the Chinese Pharmacopoeia 2010 edition, Part II, Appendix XIX C.
Test conditions of HPLC: instrument: Dionex UltiMate3000; column: Shim-pack VP-ODS 5 μm 250 L×4.6; detector: VWD-3100, detection wavelength: 256 nm; mobile phase: methanol-water-glacial acetic acid (30:70:0.4); flow rate: 1.0 mL/min, column temperature: 30° C.
High temperature (60° C.), high humidity (90%) and strong light irradiation (4500 Lx) tests of the non-solvated crystal A of example 1, non-solvated crystal B of example 2, and non-solvated crystal C of example 3 were performed according to the Chinese Pharmacopoeia 2010 edition, Part II, Appendix XIX C. Samples on day 0 and day 10 respectively were taken to determine the X-ray powder diffraction pattern and content (HPLC method).

In the case of `COc1ccc2c(Oc3ccc4c(C(=O)Nc5ccccc5N)cccc4c3)ccnc2c1` [non-solvated crystal A, N-(2-aminophenyl)-6-(7-methoxyquinoline-4-oxo)-1-naphthaleneformamide], the “content (HPLC method) after stability test” value is “does not change significantly” and the “crystal form (X-ray powder diffraction pattern) after stability test” value is “remain unchanged in their original crystal forms”.
